The numbers were not newly measured in patent US20230157303A1, “Plant-Based Pesticide” (priority 2022, published 2023), which cites them from elsewhere.

What all share (details): in vivo
Data set [1] has as its system aquatic wildlife.
In data set [2] the test system is humans and other mammals.
In data set [3] the test system is honeybees.

Turning to `CC1(C)C(C=C(Cl)Cl)C1C(=O)OC(C#N)c1cccc(Oc2ccccc2)c1` (centres unmarked) [Cypermethrin], the “toxicity to aquatic wildlife” value in data set [1] was “highly toxic”. In addition, the “toxicity to humans and other mammals” value in data set [2] is listed as “acutely toxic”. The toxicity to honeybees result in data set [3] is given as “very highly toxic”.
As to `CCOP(=S)(OCC)Oc1cc(C)nc(C(C)C)n1` [diazinon, Diazinon], the toxicity to honeybees result in data set [3] is recorded as “toxic”.
As for `CCOC(=O)CC(SP(=S)(OC)OC)C(=O)OCC` (centres unmarked) [malathion, Malathion], in data set [3], the toxicity to honeybees result is “toxic”.
